Measurements taken from patent US20100119599A1 (ARCHER PHARMACEUTICALS, INC., priority 2006, published 2010).
Counter-ions that a name gives are not always drawn.

What was measured:
Aβ1-42 = test: Measurement of Aβ1-42 in culture medium of 7W WT APP751 CHO cells by ELISA; format: cell-based, Chinese hamster; settings: for Aβ1-42 (% of control): CHO cells that overexpress APP751, zero = below the detection limit of the assay; for activity at 5 µM: Cricetulus griseus, Table 1, 5 μM test compound, CHO cells stably transfected with human APP751, culture medium, ELISA, control DMSO, 0 = no detectable amount, read-out: Aβ1-42 (% of control)
Aβ1-40 = test: Measurement of Aβ1-40 in culture medium of 7W WT APP751 CHO cells by ELISA; format: cell-based, Chinese hamster; settings: for Aβ1-40 (% of control): CHO cells that overexpress APP751, zero = below the detection limit of the assay; for activity at 5 µM: Cricetulus griseus, Table 1, 5 μM test compound, CHO cells stably transfected with human APP751, culture medium, ELISA, control DMSO, 0 = no detectable amount
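Also: 5 µM test compound but RI-coded compounds at 10 µM for 24 hours.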

| Compound | Aβ1-42 (% of control) (Aβ1-42) | Aβ1-40 (% of control) (Aβ1-40) | activity at 5 µM (Aβ1-42) | activity at 5 µM (Aβ1-40) |
| --- | --- | --- | --- | --- |
| CC1=C(C(=O)Nc2ccccc2)C(c2cccs2)C(C#N)=C(SCC(=O)Nc2ccc(C)c(Cl)c2)N1 (stereo not shown) [ST050842, N-(3-chloro-4-methylphenyl)-2-[3-cyano-6-methyl-5-(N-phenylcarbamoyl)-4-(2-thienyl)(2-1,4-dihydropyridylthio)]acetamide] | 52.06 % of control | 37.46 % of control |  |  |
| CC1=C(C(=O)OC(C)C)C(c2ccccc2)C2=C(CC(c3ccccc3)CC2=O)N1 (stereo not shown) [ST017212, methylethyl 2-methyl-5-oxo-4,7-diphenyl-1,4,6,7,8-pentahydroquinoline-3-carboxylate] |  |  | 57.1% | 25.4% |
| CC1=C(C(=O)OCCOc2ccccc2)C(c2ccc(Cl)cc2)C2=C(CC(C)(C)CC2=O)N1 (stereo not shown) [ST015093, 2-phenoxyethyl 4-(4-chlorophenyl)-2,7,7-trimethyl-5-oxo-1,4,6,7,8-pentahydroquinoline-3-carboxylate] |  |  | 0% | 0% |
| CCOC(=O)C1=C(N)n2c(s/c(=C\c3ccncc3)c2=O)=C(C#N)C1c1ccncc1 (stereo not shown) [ST024405, ethyl 5-amino-8-cyano-3-oxo-7-(4-pyridyl)-2-(4-pyridylmethylene)-4,7-dihydro-1,3-thiazolidino[3,2-a]pyridine-6-carboxylate] | 77.41 % of control | 59.66 % of control |  |  |
| COc1cccc(NC(=O)CSC2=C(C#N)C(c3ccsc3)C(C(=O)Nc3ccccc3)=C(C)N2)c1 (stereo not shown) [RI_51] | 58 % of control | 53.5 % of control |  |  |
| COCCOC(=O)C1=C(C)NC2=C(C(=O)CCC2)C1c1ccccc1 (stereo not shown) [ST013253, 2-methoxyethyl 2-methyl-5-oxo-4-phenyl-1,4,6,7,8-pentahydroquinoline-3-carboxylate] |  |  | 85.8% | 50.2% |
| CCOC(=O)C1=C(C)NC2=C(C(=O)CC(c3ccc(OC)cc3)C2)C1c1cccc(Cl)c1 (stereo not shown) [ST017144, ethyl 4-(3-chlorophenyl)-7-(4-methoxyphenyl)-2-methyl-5-oxo-1,4,6,7,8-pentahydroquinoline-3-carboxylate] |  |  | 55.6% | 23.4% |
| CCOc1ccc(C2C(C(=O)OCCc3ccccc3)=C(C)NC3=C2C(=O)CC(C)(C)C3)cc1 (stereo not shown) [ST015087, 2-phenylethyl 4-(4-ethoxyphenyl)-2,7,7-trimethyl-5-oxo-1,4,6,7,8-pentahydroquinoline-3-carboxylate] |  |  | 43.7% | 35.3% |
| COC(=O)C1=C(C)NC2=C(C(=O)CC(C)(C)C2)C1c1cccc(Cl)c1Cl (stereo not shown) [ST013151, methyl 4-(2,3-dichlorophenyl)-2,7,7-trimethyl-5-oxo-1,4,6,7,8-pentahydroquinoline-3-carboxylate] |  |  | 61.6% | 52.1% |
| CCCCCCNC(=O)CSC1=C(C#N)C(c2ccccc2)C(C(=O)Nc2ccc(Cl)cc2)=C(C)N1 (stereo not shown) [RI_35] | 78.6 % of control | 55.4 % of control |  |  |
| CCOC(=O)C1=C(C)NC2=C(C(=O)CC(c3ccc(Cl)cc3)C2)C1c1cccc(Cl)c1Cl (stereo not shown) [ST015068, ethyl 4-(2,3-dichlorophenyl)-7-(4-chlorophenyl)-2-methyl-5-oxo-1,4,6,7,8-pentahydroquinoline-3-carboxylate] |  |  | 83.8% | 46.3% |
| CC1=C(C(=O)OC(C)C)C(c2cccnc2)C2=C(CC(c3ccc(Cl)cc3)CC2=O)N1 (stereo not shown) [ST017331, methylethyl 7-(4-chlorophenyl)-2-methyl-5-oxo-4-(3-pyridyl)-1,4,6,7,8-pentahydroquinoline-3-carboxylate] |  |  | 0% | 1.11% |
| CCc1cccc(NC(=O)CSC2=C(C#N)C(c3ccc(-c4ccco4)s3)C(C(=O)Nc3ccccc3)=C(C)N2)c1 (stereo not shown) [RI_85] | 46.7 % of control | 98.5 % of control |  |  |
| CC1=C(C(=O)OCc2ccccc2)C(c2ccccc2Br)C2=C(CCCC2=O)N1 (stereo not shown) [ST052408, phenylmethyl 4-(2-bromophenyl)-2-methyl-5-oxo-1,4,6,7,8-pentahydroquinoline-3-carboxylate] |  |  | 63.4% | 63% |
| CC1=C(C#N)C(c2ccc(Cl)cc2)C2=C(CC(C)(C)CC2=O)N1 (stereo not shown) [ST013410, 4-(4-chlorophenyl)-2,7,7-trimethyl-5-oxo-1,4,6,7,8-pentahydroquinoline-3-carbonitrile] |  |  | 26% | 22% |
| COC(=O)C1=C(C)NC2=C(C(=O)CC(c3cccs3)C2)C1c1cc(OC)c(Br)cc1OC (stereo not shown) [ST045143, methyl 4-(4-bromo-2,5-dimethoxyphenyl)-2-methyl-5-oxo-7-(2-thienyl)-1,4,6,7,8-pentahydroquinoline-3-carboxylate] |  |  | 16% | 22.9% |
| CC1=C(C(=O)OC2CCCCC2)C(c2ccccc2C(F)(F)F)C2=C(CCCC2=O)N1 (stereo not shown) [ST014882, cyclohexyl 2-methyl-5-oxo-4-[2-(trifluoromethyl)phenyl]-1,4,6,7,8-pentahydroquinoline-3-carboxylate] |  |  | 91.8% | 39.5% |
| CCOC(=O)C1=C(C)NC2=C(C(=O)CCC2)C1c1ccc(Br)cc1 (stereo not shown) [ST211289, ethyl 4-(4-bromophenyl)-2-methyl-5-oxo-1,4,6,7,8-pentahydroquinoline-3-carboxylate] |  |  | 63.6% | 89.1% |

| Compound | Aβ1-42 (% of control) (Aβ1-42) | Aβ1-40 (% of control) (Aβ1-40) | activity at 5 µM (Aβ1-42) | activity at 5 µM (Aβ1-40) |
| --- | --- | --- | --- | --- |
| CC1=C(C(=O)OC(C)C)C(c2cccc(Cl)c2Cl)C2=C(CC(c3ccccc3)CC2=O)N1 (stereo not shown) [ST013439, methylethyl 4-(2,3-dichlorophenyl)-2-methyl-5-oxo-7-phenyl-1,4,6,7,8-pentahydroquinoline-3-carboxylate] |  |  | 80.3% | 19.7% |
| CC1=C(C(=O)Nc2ccccc2)C(c2cccs2)C(C#N)=C(SCC(=O)NCCc2ccccc2)N1 (stereo not shown) [RI_27] | 26.5 % of control | 34.4 % of control |  |  |
| CCCCOC(=O)C1=C(C)NC2=C(C(=O)CC(C)(C)C2)C1c1cccc2ccccc12 (stereo not shown) [ST013208, butyl 2,7,7-tnmethyl-4-naphthyl-5-oxo-1,4,6,7,8-pentahydroquinoline-3-carboxylate] |  |  | 20.2% | 0% |
| CC1=C(C(=O)Nc2ccccc2)C(c2ccsc2)C(C#N)=C(SCC(=O)Nc2ccc(C)cc2)N1 (stereo not shown) [RI_49] | 37.7 % of control | 40.9 % of control |  |  |
| CC1=C(C(=O)Nc2ccccc2)C(c2ccsc2)C(C#N)=C(SCC(=O)Nc2ccc(Cl)cc2)N1 (stereo not shown) [RI_75] | 38.6 % of control | 27.3 % of control |  |  |
| COc1ccc(NC(=O)CSC2=C(C#N)C(c3cccs3)C(C(=O)Nc3ccccc3)=C(C)N2)cc1 (stereo not shown) [RI_58] | 25.6 % of control | 23.1 % of control |  |  |
| CC1=C(C(=O)Nc2ccccc2)C(c2ccncc2)C(C#N)=C(S)N1 (stereo not shown) [ST007526, (5-cyano-2-methyl-4-(4-pyridyl)-6-sulfanyl(3-1,4-dihydropyridyl))-N-benzamide, 4-methylmorpholine salt] | 81.23 % of control | 72.5 % of control |  |  |
| CCOC(=O)C1=C(C)NC(C)=C(C(=O)OCC)C1c1ccc(F)cc1 [ST211500, ethyl 5-(ethoxycarbonyl)-4-(4-fluorophenyl)-2,6-dimethyl-1,4-dihydropyridine-3-carboxylate] | 19.53 % of control | 20.67 % of control |  |  |
| CC1=C(C(=O)OC2CCCCC2)C(c2cccc3ccccc23)C2=C(CCCC2=O)N1 (stereo not shown) [ST013258, cyclohexyl 2-methyl-4-naphthyl-5-oxo-1,4,6,7,8-pentahydroquinoline-3-carboxylate] |  |  | 47% | 0% |
| CCCOC(=O)C1=C(C)NC2=C(C(=O)CC(c3ccc(Cl)cc3)C2)C1c1ccc(Cl)c(Cl)c1 (stereo not shown) [ST017183, propyl 4-(3,4-dichlorophenyl)-7-(4-chlorophenyl)-2-methyl-5-oxo-1,4,6,7,8-pentahydroquinoline-3-carboxylate] |  |  | 67.9% | 50.1% |
| CC1=C(C(=O)Nc2ccccc2)C(c2cccs2)C(C#N)=C(SCC(=O)Nc2cccc(Cl)c2)N1 (stereo not shown) [RI_69] | 69.8 % of control | 89.1 % of control |  |  |
| COCCOC(=O)C1=C(C)NC2=C(C(=O)CCC2)C1c1ccccc1OC (stereo not shown) [ST013365, 2-methoxyethyl 4-(2-methoxyphenyl)-2-methyl-5-oxo-1,4,6,7,8-pentahydroquinoline-3-carboxylate] |  |  | 56% | 84.5% |
| CC1=C(C(=O)OCC(C)C)C(c2ccc(F)c(F)c2)C2=C(CCCC2=O)N1 (stereo not shown) [ST052345, 2-methylpropyl 4-(3,4-difluorophenyl)-2-methyl-5-oxo-1,4,6,7,8-pentanydroquinoline-3-carboxylate] |  |  | 7.81% | 43.6% |
| COc1ccc(C2C(C(=O)OCCc3ccccc3)=C(C)NC3=C2C(=O)CC(C)(C)C3)c(OC)c1 (stereo not shown) [ST015090, 2-phenylethyl 4-(2,4-dimethoxyphenyl)-2,7,7-trimethyl-5-oxo-1,4,6,7,8-pentahydroquinoline-3-carboxylate] |  |  | 34.9% | 15.4% |
| N#CC1=C(N)NC(SCC(N)=O)=C(C#N)C1c1ccc(Cl)cc1 (stereo not shown) [RI_3] | 51.2 % of control | 97.4 % of control |  |  |
| CCOC(=O)C1=CN(c2cc(C)ccc2C)C=C(C(=O)OCC)C1c1ccc(OCC)c(OC)c1 [ST052471, ethyl 1-(2,5-dimethylphenyl)-5-(ethoxycarbonyl)-4-(4-ethoxy-3-methoxyphenyl)-1,4-dihydropyridine-3-carboxylate] | 57.75 % of control | 34.26 % of control |  |  |
| CC1=C(C(=O)OCCc2ccccc2)C(c2ccccc2)C2=C(CC(C)(C)CC2=O)N1 (stereo not shown) [ST015054, 2-phenylethyl 2,7,7-trimethyl-5-oxo-4-phenyl-1,4,6,7,8-pentahydroquinoline-3-carboxylate] |  |  | 44.2% | 29.9% |
